Consider two molecules from patent US8367733B2 (Vallinex, Inc., priority 2002, dated 2013).

Like-named read-outs stand apart in the source and are kept apart here.

The conditions of series [1]: more potent than capsaicin; cited from earlier work.
The subject of series [2] is subjects undergoing transpositional osteotomy (bunionectomy) for hallux valgus deformity. Put plainly: Bunionectomy efficacy study (Phase II), intra-operative infiltration into the wound. Format: in vivo, human. The settings on record: for VAS pain score at operation site (Table 4): 1000 μg into wound, mean +/− SEM, n = 11. Here is the method: The primary efficacy endpoint was the proportion of subjects in each treatment group requiring opioid analgesia in the first 24 hours post-operatively. The proportions were compared amongst treatment groups using the Cochran-Haenszel test. Secondary efficacy end points included: i) proportion of subjects in each treatment group requiring opioid analgesia in the first 36 hour period post-operatively (Similarly, the proportions were compared amongst treatment groups using the Cochran-Haenszel test); ii) proportion of subjects in each treatment group requiring opioid analgesia in the 10 day period post-operatively (Similarly, the proportions were compared amongst treatment groups using the Cochran-Haenszel test); iii) time to first usage of opioid analgesia in each treatment group (a survival analysis approach will be used: the product-limit (Kaplan-Meier) method will be applied to time to first usage of opioid analgesia. The median time to first usage of opioid analgesia will be estimated in both treatment groups. Pairwise comparisons will be performed to test for equality of the survival curves between the 2 treatment groups using both the log-rank and the Wilcoxon test); iv) total usage of analgesia in each treatment group (the total usage of analgesia will be compared by an analysis of variance with treatment and center as independent variables. A pairwise comparison will be performed between the treatment groups); and v) VAS assessment of pain at the site of operation in each treatment group (The VAS score at each time point will be compared by an analysis of variance with treatment and center as independent variables. A pairwise comparison will be performed between the treatment groups). […] The efficacy analysis was performed on the data obtained ten days postoperatively. The safety analysis was performed based on the safety data for the entire study, including the 6 week and 12 week follow-up periods. The blind was broken at the time the efficacy analysis was performed. However, the individual treatment assignment was available to the statistical analysis group only. All other personnel involved in the study, including the Investigator, study monitor and proprietary staff, remained blinded until the entire study was completed.
The study was designed to include 40 evaluation subjects. […] Each subject had six (6) study visits: a Screening Day (Day −28 to −1), an Operation Day (Day 0), and four (4) Follow-up visits (scheduled for Days 3, 10 and weeks 6 and 12).
On Operation Day (Day 0) the following was performed: a) Pre-operation: Prior to the initiation of an ankle block, inclusion/exclusion criteria assessment was performed. […] Immediately prior to wound closure, the Investigator slowly dripped the study medication (4 mL) from a syringe into the wound, ensuring even tissue exposure. The wound was then closed according to normal practices and procedures.
In the 24 hours following administration of study medication, vital signs (supine pulse rate and blood pressure) were recorded at 1, 2, 4 and 24 hours post administration. VAS assessment of pain at the operation site was performed at 1, 4, 8, 12 and 24 hours post administration. In those instances where VAS measurements coincide with blood sampling procedures, the VAS assessment was performed first. […] The quantity of each blood sample was 10 mL. Laboratory safety assessments, e.g., haematology, biochemistry, urinalysis were performed at 24 hours post administration. Adverse events were spontaneously reported by the subject and recorded. Rescue analgesia medication was provided to the subject if required (initially diclofenac 50 mg, repeated at 8 hourly intervals if necessary).

Series [3] deals with radiation induced hyperalgesia. Conditions: systemic, cited from earlier work.
Series [4] concerns subjects with osteoarthritis of the knee. Put plainly: Osteoarthritis of the knee safety study (Phase 1): safety, tolerability and VAS pain after intra-articular infiltration. Format: in vivo, human. The settings on record: for patients reporting transient burning pain immediately following instillation: after 2% lignocaine. Here is the method: The primary objective of the study was to evaluate the safety and tolerability of intra-articular capsaicin, when co-administered with intra-articular local anesthetic, compared to placebo, in subjects with end-stage osteoarthritis of the knee, already scheduled to receive knee replacements.
Study drug was stored at a temperature between 15° C. and 25° C.
The study was designed to include 16 evaluation subjects. […] Sixteen subjects completed the study.
Patients were treated randomly and in double-blind fashion in four treatment cohorts, with each cohort having a progressively longer interval between the intra-articular administration of study medication and subsequent total knee replacement (2, 4, 7, and 14 days). […] Gross and microscopic pathology analysis was completed for each treatment cohort before the next treatment coort was treated.
Each subject had 3 study visits: a Screening Day (Day −7 to −1), the Treatment Day (Day 0), and a Post-Treatment Day (scheduled for Day +2, +4, +7, or +14). On the Treatment Day the subject was randomized, pre-treatment evaluation was performed. The patients were brought into the procedure room, and a VAS pain score was taken (0 mm—no pain, 100 mm—extreme pain). Once the patient had marked his or her pain on the card, he/she was prepped for knee cannulation. Once the cannula was placed, the patient received by intra-articular infiltration, 3 mg/kg (maximum dose of 200 mg) of 2% lignocaine into the knee scheduled to be replaced.
VAS pain scores as well as verbal reports were taken immediately following administration, as well as prior to knee replacement surgery. No subjects discontinued from the study due to adverse events.
On the Post-Treatment Day, study evaluation was performed followed by the scheduled knee replacement, with intra-operative bone and soft tissue biopsies performed for subsequent examination. […] This therefore left the 3 placebo and 9 active patients from the 4 day, 7 day, and 14 day cohorts.

The conditions of series [5]: cited from earlier work.
Where [6] appears, read: 10, 100, 300 μg intra-articular.

`C=C(C)[C@]12C[C@@H](C)[C@@]34O[C@](Cc5ccccc5)(O[C@@H]1[C@@H]3C=C(COC(=O)Cc1ccc(O)c(OC)c1)C[C@]1(O)C(=O)C(C)=C[C@@H]41)O2` [Resiniferatoxin, resiniferatoxin]: the “potency compared with capsaicin” value in series [1] is recorded as 10^3-10^4 fold.

With `COc1cc(CNC(=O)CCCC/C=C/C(C)C)ccc1O` [purified capsaicin, N-(4-hydroxy-3-methoxybenzyl)-8-methylnon-trans-6-enamide], the “effect on pain score and use of rescue” value in series [2] (1000 μg into the wound prior to wound closure) is given as “reduced both pain score as well as the use of rescue”. For the same molecule, the “VAS pain score at operation site (Table 4)” value in series [2] (8 hr) was 5.5 +/− 2.3; in series [2] (12 hr) it was 8.2 +/− 3.8; in series [2] (24 hr), 1.9 +/− 1.0; in series [2] (48 hr), 5.9 +/− 2.5. Moreover, the “study subjects requiring rescue” value in series [2] (1000 μg prior to wound closure, within 72 hours, n=11, P<0.05 vs placebo) is reported as 40%. Moreover, in series [3] (final doses of 25 mg/kg or less prior to ultra violet radiation), the radiation induced hyperalgesia result is on record as “prevented radiation induced hyperalgesia”. Moreover, the pain threshold entry is recorded as “did not elevate the pain threshold above normal range” in series [3] (final doses of 25 mg/kg or less) and “pain threshold elevated” in series [3] (final doses of 50 mg/kg or greater). The “patients reporting transient burning pain immediately following instillation” value in series [4] (10 μg intra-articular) is listed as 0 of 4; in series [4] (100 μg intra-articular), 1 of 4; in series [4] (300 μg intra-articular) it was 4 of 4. Besides, the “subjects requiring intervention for post-injection (hyper)algesia” value was found to be 1 subject in series [4] (100 μg dose group (n=4)) and 4 subjects in series [4] (300 μg dose group (n=4)). Further, the “VAS reduced, prior to administration vs day of surgery” value in series [4] (9 active patients of the 4, 7 and 14 day cohorts, doses 10-300 μg pooled) is 62±14%. The “effects on laboratory safety parameters or vital signs” value in series [4] (setting [6]) is given as “no treatment related effects”. In series [4] (setting [6]), the “effects on soft tissue, cartilage, or bone upon histopathological examination” value is “no treatment related effects”. Besides, the “gross and microscopic pathology” value in series [4] (setting [6]) is “normal”. Moreover, in series [4] (setting [6]), the “signs of erythema, edema, or hemorrhage at the site of injection” value is given as “no treatment related signs”. For the same molecule, in series [4] (setting [6]), the systemic side effects entry is recorded as “No treatment related systemic side effects were seen”. The tolerability result in series [4] (setting [6]) is reported as “well tolerated at all dose levels”. For the same molecule, the “median decrease from baseline to pre-operative time point in VAS for pain at the target knee, compared with placebo” value in series [4] (all 3 capsaicin dose groups) is listed as “substantially greater”. Further, in series [4] (all cases), the “average duration of post injection hyperalgesia” value is “less than thirty minutes”. In addition, in series [4] (all episodes, 100 μg and 300 μg), the “onset of post-administration (hyper)algesia after administration” value is at most 5 min. In addition, the “indication of efficacy on VAS pain” value in series [4] (any of the dose levels (10 μg, 100 μg, 300 μg)) is recorded as “No clear treatment related indication of efficacy”. Further, the “solubility in alcohol, ether, benzene and chloroform” value in series [5] was “freely soluble”.
